Measurements from DBAASP.
Values after ≈ are worked out from the molar mass of the structure shown.

Columns and labels:
Assay in all cases: ≥ marks a high value that may be exact or a test limit, other limits are often not marked, values filed in µg/mL are converted to µM
[1] = tested on: Salmonella enterica subsp. enterica serovar Typhimurium ATCC 14028
[2] = tested on: Escherichia coli K88
[3] = tested on: Pseudomonas aeruginosa
[4] = tested on: Escherichia coli UB1005
[5] = tested on: Pseudomonas aeruginosa CICC 21630
[6] = tested on: Escherichia coli K99
[7] = tested on: Pseudomonas aeruginosa PAO1
[8] = tested on: Salmonella enterica subsp. enterica serovar Typhimurium C77-31
[9] = tested on: Klebsiella pneumoniae
[10] = tested on: Pseudomonas aeruginosa CICC 21625
[11] = tested on: Escherichia coli ATCC 25922
[12] = tested on: Salmonella enterica subsp. enterica serovar Pullorum C79-13
[13] = tested on: Acinetobacter baumannii
[14] = tested on: Pseudomonas aeruginosa ATCC 27853
[15] = tested on: Escherichia coli
[16] = tested on: Klebsiella pneumoniae M6
[17] = tested on: Acinetobacter baumannii ATCC 17987
[18] = tested on: Klebsiella pneumoniae NCTC 13368
[19] = tested on: Pseudomonas syringae pv. tomato
[20] = tested on: Acinetobacter baumannii AYE
[21] = tested on: Staphylococcus aureus NCTC 9144
[22] = tested on: Pseudomonas aeruginosa NCTC 13437
[23] = tested on: Enterococcus faecalis NCTC 12201
[24] = tested on: Escherichia coli NCTC 12923
[25] = tested on: Staphylococcus aureus 15
[26] = tested on: Enterococcus faecalis NCTC 12204
[27] = tested on: Enterococcus faecalis NCTC 775
[28] = tested on: Xanthomonas axonopodis pv. phaseoli
[29] = tested on: Staphylococcus aureus SR1550
[30] = tested on: Staphylococcus aureus ATCC 6538P
[31] = tested on: Escherichia coli K-12 594

MIC [1] [µM]	MIC [2] [µM]	MIC [3] [µM]	MIC [4] [µM]	MIC [5] [µM]	MIC [6] [µM]	MIC [7] [µM]	MIC [8] [µM]	MIC [9] [µM]	MIC [10] [µM]	MIC [11] [µM]	MIC [12] [µM]	MIC [13] [µM]	MIC [14] [µM]	MIC [15] [µM]	MIC [29] [µM]	MIC [30] [µM]	MIC [31] [µM]	also measured	Compound
1 (≈ 3.37 µg/mL)	1 (≈ 3.37 µg/mL)	2.83 (≈ 9.54 µg/mL)	2 (≈ 6.75 µg/mL)	2 (≈ 6.75 µg/mL)	1 (≈ 3.37 µg/mL)	1 (≈ 3.37 µg/mL)	2 (≈ 6.75 µg/mL)	2 (≈ 6.75 µg/mL)	8 (≈ 27 µg/mL)	1 (≈ 3.37 µg/mL)	1 (≈ 3.37 µg/mL)	1 (≈ 3.37 µg/mL)	1 (≈ 3.37 µg/mL)	1 (≈ 3.37 µg/mL)	–	–	–	–	CC(C)C[C@H](NC(=O)[C@@H]1CCCN1C(=O)[C@H](CCCN=C(N)N)NC(=O)[C@H](CC(C)C)NC(=O)[C@H](CC(C)C)NC(=O)[C@@H]1CCCN1C(=O)[C@H](CCCN=C(N)N)NC(=O)[C@H](CC(C)C)NC(=O)[C@H](CC(C)C)NC(=O)[C@@H]1CCCN1C(=O)[C@H](CCCN=C(N)N)NC(=O)[C@H](CC(C)C)NC(=O)[C@H](CC(C)C)NC(=O)[C@@H]1CCCN1C(=O)[C@H](CCCN=C(N)N)NC(=O)[C@H](CC(C)C)NC(=O)[C@H](CC(C)C)NC(=O)[C@@H]1CCCN1C(=O)[C@H](CCCN=C(N)N)NC(=O)[C@H](CC(C)C)NC(=O)[C@H](CC(C)C)NC(=O)[C@@H]1CCCN1C(=O)[C@H](CCCN=C(N)N)NC(=O)[C@H](CC(C)C)NC(=O)[C@H](CC(C)C)NC(=O)[C@@H]1CCCN1C(=O)[C@H](CCCN=C(N)N)NC(=O)[C@@H](N)CC(C)C)C(N)=O [LRPLLRPLLRPLLRPLLRPLLRPLLRPL]
–	–	–	–	–	–	> 43.8	–	–	–	–	–	–	–	–	–	–	–	MIC [16]: ≥ 43.8 µM; MIC [17]: 21.9 µM (≈ 64 µg/mL); MIC [18]: ≥ 43.8 µM; MIC [19]: 1.37 µM (≈ 4 µg/mL); MIC [20]: 21.9 µM (≈ 64 µg/mL); MIC [21]: ≥ 43.8 µM; MIC [22]: ≥ 43.8 µM; MIC [23]: ≥ 43.8 µM; MIC [24]: 11 µM (≈ 32 µg/mL); MIC [25]: ≥ 43.8 µM; MIC [26]: ≥ 43.8 µM; MIC [27]: ≥ 43.8 µM; MIC [28]: 0.342 µM (≈ 1 µg/mL)	CC[C@H](C)[C@H](NC(=O)[C@H](CCC(=O)O)NC(=O)[C@H](CC(N)=O)NC(=O)[C@H](CCCCN)NC(=O)[C@H](CC(C)C)NC(=O)[C@H](CCCCN)NC(=O)[C@H](CCCCN)NC(=O)[C@H](CCCN=C(N)N)NC(=O)[C@@H](NC(=O)[C@H](CCCCN)NC(=O)[C@H](CCC(=O)O)NC(=O)[C@H](CCCCN)NC(=O)CNC(=O)[C@H](C)N)[C@@H](C)CC)C(=O)N[C@@H](CCCCN)C(=O)N[C@@H](CCCCN)C(=O)N[C@@H](CCCCN)C(=O)NCC(=O)N[C@@H](CCCN=C(N)N)C(=O)N[C@@H](CCCCN)C(=O)N[C@@H](C)C(=O)N[C@H](C(=O)N[C@H](C(=O)N[C@@H](C)C(=O)N[C@@H](Cc1c[nH]c2ccccc12)C(=O)O)[C@@H](C)CC)C(C)C [AGKEKIRKKLKNEIKKKGRKAVIAW]
–	–	–	–	–	–	> 43.7	–	–	–	–	–	–	–	–	–	–	–	MIC [16]: ≥ 43.7 µM; MIC [17]: 21.8 µM (≈ 64 µg/mL); MIC [18]: ≥ 43.7 µM; MIC [19]: 5.46 µM (≈ 16 µg/mL); MIC [20]: 10.9 µM (≈ 32 µg/mL); MIC [21]: ≥ 43.7 µM; MIC [22]: ≥ 43.7 µM; MIC [23]: ≥ 43.7 µM; MIC [24]: 21.8 µM (≈ 64 µg/mL); MIC [25]: ≥ 43.7 µM; MIC [26]: ≥ 43.7 µM; MIC [27]: ≥ 43.7 µM; MIC [28]: 1.37 µM (≈ 4 µg/mL)	CC[C@H](C)[C@H](NC(=O)[C@H](CCC(=O)O)NC(=O)[C@H](CC(N)=O)NC(=O)[C@H](CCCCN)NC(=O)[C@H](CC(C)C)NC(=O)[C@H](Cc1ccc(O)cc1)NC(=O)[C@H](CCC(N)=O)NC(=O)[C@H](CCCN=C(N)N)NC(=O)[C@@H](NC(=O)[C@@H](NC(=O)[C@H](CCC(=O)O)NC(=O)[C@H](CCCCN)NC(=O)CNC(=O)[C@H](C)N)[C@@H](C)O)[C@@H](C)CC)C(=O)N[C@@H](CCCCN)C(=O)N[C@@H](CCCCN)C(=O)N[C@@H](CCCCN)C(=O)NCC(=O)N[C@@H](CCCN=C(N)N)C(=O)N[C@@H](CCCCN)C(=O)N[C@@H](C)C(=O)N[C@H](C(=O)N[C@H](C(=O)N[C@@H](C)C(=O)N[C@@H](Cc1c[nH]c2ccccc12)C(=O)O)[C@@H](C)CC)C(C)C [AGKETIRQYLKNEIKKKGRKAVIAW]
–	–	–	–	–	–	–	–	–	–	–	–	–	–	–	30.4 (≈ 35 µg/mL)	1.74 (≈ 2 µg/mL)	26 (≈ 30 µg/mL)	–	CC(C)C[C@H](NC(=O)[C@H](CCCN=C(N)N)NC(=O)[C@H](CC(C)C)NC(=O)[C@H](CC(C)C)NC(=O)[C@H](CC(C)C)NC(=O)[C@H](CCCCN)NC(=O)[C@H](CC(C)C)NC(=O)[C@@H](N)CCCN=C(N)N)C(=O)N[C@@H](CCCCN)C(N)=O [RLKLLLRLK]
–	–	–	–	–	–	–	–	–	–	–	–	–	–	–	21.8 (≈ 30 µg/mL)	0.725 (≈ 0.999 µg/mL)	14.5 (≈ 20 µg/mL)	–	CC(C)C[C@H](NC(=O)[C@H](CCCN=C(N)N)NC(=O)[C@H](CC(C)C)NC(=O)[C@H](CC(C)C)NC(=O)[C@H](CC(C)C)NC(=O)[C@H](CC(C)C)NC(=O)[C@H](CC(C)C)NC(=O)[C@H](CCCCN)NC(=O)[C@H](CC(C)C)NC(=O)[C@@H](N)CCCN=C(N)N)C(=O)N[C@@H](CCCCN)C(N)=O [RLKLLLLLRLK]
–	–	–	–	–	–	–	–	–	–	–	–	–	–	–	31.9 (≈ 35 µg/mL)	14.6 (≈ 16 µg/mL)	31.9 (≈ 35 µg/mL)	–	CC(C)C[C@H](NC(=O)[C@H](CC(C)C)NC(=O)[C@H](CC(C)C)NC(=O)[C@H](CC(C)C)NC(=O)[C@H](CC(C)C)NC(=O)[C@H](CCCCN)NC(=O)[C@@H](N)CCCCN)C(=O)N[C@@H](CCCCN)C(=O)N[C@@H](CCCCN)C(N)=O [KKLLLLLKK]
64 (≈ 175 µg/mL)	4 (≈ 10.9 µg/mL)	> 64	16 (≈ 43.6 µg/mL)	≥ 64	8 (≈ 21.8 µg/mL)	> 64	≥ 64	> 64	≥ 64	16 (≈ 43.6 µg/mL)	≥ 64	16 (≈ 43.6 µg/mL)	> 64	64 (≈ 175 µg/mL)	–	–	–	–	CC[C@H](C)[C@H](N)C(=O)N[C@@H](CCCCN)C(=O)N1CCC[C@H]1C(=O)N[C@H](C(=O)N[C@H](C(=O)N[C@@H](CCCCN)C(=O)N1CCC[C@H]1C(=O)N[C@H](C(=O)N[C@H](C(=O)N[C@@H](CCCCN)C(=O)N1CCC[C@H]1C(=O)N[C@H](C(=O)N[C@H](C(=O)N[C@@H](CCCCN)C(=O)N1CCC[C@H]1C(=O)N[C@H](C(=O)N[C@H](C(=O)N[C@@H](CCCCN)C(=O)N1CCC[C@H]1C(=O)N[C@H](C(=O)N[C@H](C(=O)N[C@@H](CCCCN)C(=O)N1CCC[C@H]1C(=O)N[C@H](C(N)=O)[C@@H](C)CC)[C@@H](C)CC)[C@@H](C)CC)[C@@H](C)CC)[C@@H](C)CC)[C@@H](C)CC)[C@@H](C)CC)[C@@H](C)CC)[C@@H](C)CC)[C@@H](C)CC)[C@@H](C)CC [IKPIIKPIIKPIIKPIIKPIIKPI]
8 (≈ 25.4 µg/mL)	8 (≈ 25.4 µg/mL)	> 64	8 (≈ 25.4 µg/mL)	≥ 64	16 (≈ 50.8 µg/mL)	> 64	16 (≈ 50.8 µg/mL)	32 (≈ 102 µg/mL)	≥ 64	8 (≈ 25.4 µg/mL)	4 (≈ 12.7 µg/mL)	4 (≈ 12.7 µg/mL)	> 64	8 (≈ 25.4 µg/mL)	–	–	–	–	CC(C)[C@H](N)C(=O)N[C@@H](CCCN=C(N)N)C(=O)N1CCC[C@H]1C(=O)N[C@H](C(=O)N[C@H](C(=O)N[C@@H](CCCN=C(N)N)C(=O)N1CCC[C@H]1C(=O)N[C@H](C(=O)N[C@H](C(=O)N[C@@H](CCCN=C(N)N)C(=O)N1CCC[C@H]1C(=O)N[C@H](C(=O)N[C@H](C(=O)N[C@@H](CCCN=C(N)N)C(=O)N1CCC[C@H]1C(=O)N[C@H](C(=O)N[C@H](C(=O)N[C@@H](CCCN=C(N)N)C(=O)N1CCC[C@H]1C(=O)N[C@H](C(=O)N[C@H](C(=O)N[C@@H](CCCN=C(N)N)C(=O)N1CCC[C@H]1C(=O)N[C@H](C(=O)N[C@H](C(=O)N[C@@H](CCCN=C(N)N)C(=O)N1CCC[C@H]1C(=O)N[C@H](C(N)=O)C(C)C)C(C)C)C(C)C)C(C)C)C(C)C)C(C)C)C(C)C)C(C)C)C(C)C)C(C)C)C(C)C)C(C)C)C(C)C [VRPVVRPVVRPVVRPVVRPVVRPVVRPV]
